# Patent US12435044B2, “Pyridazinone herbicides and pyridazinone intermediates used to prepare a herbicide” (FMC Corporation, priority 2018, dated 2025)
# How the values were obtained:
# Format in all cases: in vivo
# [1] = test system: mare's tail (ERICA; Conyza canadensis); assay: Test J pre-/postemergence, mixtures of Cpd. No. 20 with (b15C2)
# From the text: (§1) This test evaluated the effect of mixtures of Cpd. No. 20 with (b15C2) on several plant species. Seeds of plant species selected from corn (ZEAMD; Zea mays, cv. ‘Pioneer 1184’), soybean (GLXMA; Glycine max, cv. Pioneer 35T58), giant foxtail (SETFA; Setaria faberi), palmer amaranth (AMAPA; Amaranthus palmeri), common waterhemp (AMATU; Amaranthus rudis), mare's tail (ERICA; Conyza canadensis), and common ragweed (AMBEL; Ambrosia artemisiifolia) were planted in pots containing Tama Silt Loam soil and treated preemergence with a directed soil spray using test chemicals formulated in a non-phytotoxic solvent mixture which included a surfactant.
# (§2) At the same time, plants selected from these crop and weed species were planted in pots containing Redi-Earth® planting medium (Scotts Company, 14111 Scottslawn Road, Marysville, Ohio 43041) comprising spaghnum peat moss, vermiculite, wetting agent and starter nutrients and treated postemergence with test chemicals formulated in the same manner. Plants ranged in height from 2 to 10 cm and were in the one- to two-leaf stage for the postemergence treatment. Treated plants and untreated controls were maintained in a greenhouse for approximately 14-21 d, after which time all treated plants were compared to untreated controls and visually evaluated for injury. Plant response ratings, summarized in Tables J1 & J2, are based on a 0 to 100 scale where 0 is no effect and 100 is complete control. A dash (-) response means no test result. Test results are presented as a mean of 4 reps.
# [2] = test system: common ragweed (AMBEL; Ambrosia artemisiifolia); assay: as above
# From the text: as §1, §2
# [3] = test system: palmer amaranth (AMAPA; Amaranthus palmeri); assay: as above
# From the text: as §1, §2
# [4] = test system: giant foxtail (SETFA; Setaria faberi); assay: as above
# From the text: as §1, §2
# [5] = test system: corn (ZEAMD; Zea mays, cv. ‘Pioneer 1184’); assay: as above
# From the text: as §1, §2
# [6] = test system: common waterhemp (AMATU; Amaranthus rudis); assay: as above
# From the text: as §1, §2
# [7] = test system: soybean (GLXMA; Glycine max, cv. Pioneer 35T58); assay: as above
# From the text: as §1, §2
# [8] = test system: mare's tail (ERICA; Conyza canadensis); assay: Test I pre-/postemergence, mixtures of Cpd. No. 20 with saflufenacil or pyroxasulfone; settings: for Plant response rating (0 to 100 scale): Preemergence, ERICA; for ERICA plant response rating, 0 to 100 scale: postemergence
# From the text: as §1, with “saflufenacil or pyroxasulfone” for “(b15C2)”
# as §2, with “11 to 14,” for “J1 & J2,”
# [9] = test system: common ragweed (AMBEL; Ambrosia artemisiifolia); assay: as above; settings: for Plant response rating (0 to 100 scale): Preemergence, AMBEL; for AMBEL plant response rating, 0 to 100 scale: postemergence
# From the text: as §1, with “saflufenacil or pyroxasulfone” for “(b15C2)”
# as §2, with “11 to 14,” for “J1 & J2,”
# [10] = test system: palmer amaranth (AMAPA; Amaranthus palmeri); assay: as above; settings: for Plant response rating (0 to 100 scale): Preemergence, AMAPA; for AMAPA plant response rating, 0 to 100 scale: postemergence
# From the text: as §1, with “saflufenacil or pyroxasulfone” for “(b15C2)”
# as §2, with “11 to 14,” for “J1 & J2,”
# [11] = test system: giant foxtail (SETFA; Setaria faberi); assay: as above; settings: for Plant response rating (0 to 100 scale): Preemergence, SETFA; for SETFA plant response rating, 0 to 100 scale: postemergence
# From the text: as §1, with “saflufenacil or pyroxasulfone” for “(b15C2)”
# as §2, with “11 to 14,” for “J1 & J2,”
# [12] = test system: corn (ZEAMD; Zea mays, cv. ‘Pioneer 1184’); assay: as above; settings: for Plant response rating (0 to 100 scale): Preemergence, ZEAMD; for ZEAMD plant response rating, 0 to 100 scale: postemergence
# From the text: as §1, with “saflufenacil or pyroxasulfone” for “(b15C2)”
# as §2, with “11 to 14,” for “J1 & J2,”
# [13] = test system: common waterhemp (AMATU; Amaranthus rudis); assay: as above; settings: for Plant response rating (0 to 100 scale): Preemergence, AMATU; for AMATU plant response rating, 0 to 100 scale: postemergence
# From the text: as §1, with “saflufenacil or pyroxasulfone” for “(b15C2)”
# as §2, with “11 to 14,” for “J1 & J2,”
# [14] = test system: soybean (GLXMA; Glycine max, cv. Pioneer 35T58); assay: as above; settings: for Plant response rating (0 to 100 scale): Preemergence, GLXMA; for GLXMA plant response rating, 0 to 100 scale: postemergence
# From the text: as §1, with “saflufenacil or pyroxasulfone” for “(b15C2)”
# as §2, with “11 to 14,” for “J1 & J2,”
structure (smiles),measurement,setting,value
"O=C(CCC(F)(F)F)c1c(Cl)cccc1Oc1ncc(Cl)cn1 [(b15C2), 1-[2-chloro-6-[(5-chloro-2-pyrimidinyl)oxy]phenyl]-4,4,4-trifluoro-1-butanone, reference compound]","ERICA plant response rating, 0 to 100 scale","[1]; postemergence, 8 g a.i./ha",0
same,"ERICA plant response rating, 0 to 100 scale","[1]; postemergence, 16 g a.i./ha",0
same,"ERICA plant response rating, 0 to 100 scale","[1]; postemergence, 31 g a.i./ha",0
same,"ERICA plant response rating, 0 to 100 scale","[1]; postemergence, 62 g a.i./ha",5
same,"ERICA plant response rating, 0 to 100 scale","[1]; preemergence, 8 g a.i./ha",0
same,"ERICA plant response rating, 0 to 100 scale","[1]; preemergence, 16 g a.i./ha",0
same,"ERICA plant response rating, 0 to 100 scale","[1]; preemergence, 31 g a.i./ha",0
same,"ERICA plant response rating, 0 to 100 scale","[1]; preemergence, 62 g a.i./ha",13
same,"AMBEL plant response rating, 0 to 100 scale","[2]; postemergence, 8 g a.i./ha",5
same,"AMBEL plant response rating, 0 to 100 scale","[2]; postemergence, 16 g a.i./ha",3
same,"AMBEL plant response rating, 0 to 100 scale","[2]; postemergence, 31 g a.i./ha",10
same,"AMBEL plant response rating, 0 to 100 scale","[2]; postemergence, 62 g a.i./ha",20
same,"AMBEL plant response rating, 0 to 100 scale","[2]; preemergence, 8 g a.i./ha",0
same,"AMBEL plant response rating, 0 to 100 scale","[2]; preemergence, 16 g a.i./ha",0
same,"AMBEL plant response rating, 0 to 100 scale","[2]; preemergence, 31 g a.i./ha",0
same,"AMBEL plant response rating, 0 to 100 scale","[2]; preemergence, 62 g a.i./ha",15
same,"AMAPA plant response rating, 0 to 100 scale","[3]; postemergence, 8 g a.i./ha",20
same,"AMAPA plant response rating, 0 to 100 scale","[3]; postemergence, 16 g a.i./ha",38
same,"AMAPA plant response rating, 0 to 100 scale","[3]; postemergence, 31 g a.i./ha",56
same,"AMAPA plant response rating, 0 to 100 scale","[3]; postemergence, 62 g a.i./ha",74
same,"AMAPA plant response rating, 0 to 100 scale","[3]; preemergence, 8 g a.i./ha",63
same,"AMAPA plant response rating, 0 to 100 scale","[3]; preemergence, 16 g a.i./ha",90
same,"AMAPA plant response rating, 0 to 100 scale","[3]; preemergence, 31 g a.i./ha",100
same,"AMAPA plant response rating, 0 to 100 scale","[3]; preemergence, 62 g a.i./ha",100
same,"SETFA plant response rating, 0 to 100 scale","[4]; postemergence, 8 g a.i./ha",5
same,"SETFA plant response rating, 0 to 100 scale","[4]; postemergence, 16 g a.i./ha",5
same,"SETFA plant response rating, 0 to 100 scale","[4]; postemergence, 31 g a.i./ha",8
same,"SETFA plant response rating, 0 to 100 scale","[4]; postemergence, 62 g a.i./ha",6
same,"SETFA plant response rating, 0 to 100 scale","[4]; preemergence, 8 g a.i./ha",8
same,"SETFA plant response rating, 0 to 100 scale","[4]; preemergence, 16 g a.i./ha",64
same,"SETFA plant response rating, 0 to 100 scale","[4]; preemergence, 31 g a.i./ha",95
same,"SETFA plant response rating, 0 to 100 scale","[4]; preemergence, 62 g a.i./ha",100
same,"ZEAMD plant response rating, 0 to 100 scale","[5]; postemergence, 8 g a.i./ha",3
same,"ZEAMD plant response rating, 0 to 100 scale","[5]; postemergence, 16 g a.i./ha",5
same,"ZEAMD plant response rating, 0 to 100 scale","[5]; postemergence, 31 g a.i./ha",9
same,"ZEAMD plant response rating, 0 to 100 scale","[5]; postemergence, 62 g a.i./ha",10
same,"ZEAMD plant response rating, 0 to 100 scale","[5]; preemergence, 8 g a.i./ha",0
same,"ZEAMD plant response rating, 0 to 100 scale","[5]; preemergence, 16 g a.i./ha",0
same,"ZEAMD plant response rating, 0 to 100 scale","[5]; preemergence, 31 g a.i./ha",0
same,"ZEAMD plant response rating, 0 to 100 scale","[5]; preemergence, 62 g a.i./ha",0
same,"AMATU plant response rating, 0 to 100 scale","[6]; postemergence, 8 g a.i./ha",43
same,"AMATU plant response rating, 0 to 100 scale","[6]; postemergence, 16 g a.i./ha",55
same,"AMATU plant response rating, 0 to 100 scale","[6]; postemergence, 31 g a.i./ha",75
same,"AMATU plant response rating, 0 to 100 scale","[6]; postemergence, 62 g a.i./ha",83
same,"AMATU plant response rating, 0 to 100 scale","[6]; preemergence, 8 g a.i./ha",20
same,"AMATU plant response rating, 0 to 100 scale","[6]; preemergence, 16 g a.i./ha",79
same,"AMATU plant response rating, 0 to 100 scale","[6]; preemergence, 31 g a.i./ha",100
same,"AMATU plant response rating, 0 to 100 scale","[6]; preemergence, 62 g a.i./ha",100
same,"GLXMA plant response rating, 0 to 100 scale","[7]; postemergence, 8 g a.i./ha",20
same,"GLXMA plant response rating, 0 to 100 scale","[7]; postemergence, 16 g a.i./ha",29
same,"GLXMA plant response rating, 0 to 100 scale","[7]; postemergence, 31 g a.i./ha",43
same,"GLXMA plant response rating, 0 to 100 scale","[7]; postemergence, 62 g a.i./ha",68
same,"GLXMA plant response rating, 0 to 100 scale","[7]; preemergence, 8 g a.i./ha",0
same,"GLXMA plant response rating, 0 to 100 scale","[7]; preemergence, 16 g a.i./ha",0
same,"GLXMA plant response rating, 0 to 100 scale","[7]; preemergence, 31 g a.i./ha",0
same,"GLXMA plant response rating, 0 to 100 scale","[7]; preemergence, 62 g a.i./ha",0
"CC(C)N(C)S(=O)(=O)NC(=O)c1cc(-n2c(=O)cc(C(F)(F)F)n(C)c2=O)c(F)cc1Cl [Saflufenacil, saflufenacil, reference compound]",Plant response rating (0 to 100 scale),[8]; Saflufenacil 4 g a.i./ha alone,94
same,Plant response rating (0 to 100 scale),[8]; Saflufenacil 8 g a.i./ha alone,100
same,"ERICA plant response rating, 0 to 100 scale",[8]; 4 g a.i./ha,95
same,"ERICA plant response rating, 0 to 100 scale",[8]; 8 g a.i./ha,100
same,Plant response rating (0 to 100 scale),[9]; Saflufenacil 4 g a.i./ha alone,96
same,Plant response rating (0 to 100 scale),[9]; Saflufenacil 8 g a.i./ha alone,100
same,"AMBEL plant response rating, 0 to 100 scale",[9]; 4 g a.i./ha,100
same,"AMBEL plant response rating, 0 to 100 scale",[9]; 8 g a.i./ha,100
same,Plant response rating (0 to 100 scale),[10]; Saflufenacil 4 g a.i./ha alone,35
same,Plant response rating (0 to 100 scale),[10]; Saflufenacil 8 g a.i./ha alone,88
same,"AMAPA plant response rating, 0 to 100 scale",[10]; 4 g a.i./ha,84
same,"AMAPA plant response rating, 0 to 100 scale",[10]; 8 g a.i./ha,70
same,Plant response rating (0 to 100 scale),[11]; Saflufenacil 4 g a.i./ha alone,0
same,Plant response rating (0 to 100 scale),[11]; Saflufenacil 8 g a.i./ha alone,0
same,"SETFA plant response rating, 0 to 100 scale",[11]; 4 g a.i./ha,23
same,"SETFA plant response rating, 0 to 100 scale",[11]; 8 g a.i./ha,55
same,Plant response rating (0 to 100 scale),[12]; Saflufenacil 4 g a.i./ha alone,0
same,Plant response rating (0 to 100 scale),[12]; Saflufenacil 8 g a.i./ha alone,0
same,"ZEAMD plant response rating, 0 to 100 scale",[12]; 4 g a.i./ha,15
same,"ZEAMD plant response rating, 0 to 100 scale",[12]; 8 g a.i./ha,70
same,Plant response rating (0 to 100 scale),[13]; Saflufenacil 4 g a.i./ha alone,55
same,Plant response rating (0 to 100 scale),[13]; Saflufenacil 8 g a.i./ha alone,84
same,"AMATU plant response rating, 0 to 100 scale",[13]; 4 g a.i./ha,85
same,"AMATU plant response rating, 0 to 100 scale",[13]; 8 g a.i./ha,90
same,Plant response rating (0 to 100 scale),[14]; Saflufenacil 4 g a.i./ha alone,0
same,Plant response rating (0 to 100 scale),[14]; Saflufenacil 8 g a.i./ha alone,0
same,"GLXMA plant response rating, 0 to 100 scale",[14]; 4 g a.i./ha,74
same,"GLXMA plant response rating, 0 to 100 scale",[14]; 8 g a.i./ha,91
